Test results from US10946094B2, “Adenoassociated viral mediated persistant anti-VEGF therapy for ovarian cancer” (Cornell University, priority 2015, dated 2021).

Tests used:
[1] = tested on: A2780 ovarian cancer cells; assay: Survival of A2780 tumor-bearing mice pretreated with chemotherapeutic, followed by AAV vector; format: in vivo, Balb/c nude mice; details: for Efficacy as single agents at the doses and schedules used: survival of A2780 tumor-bearing mice
Protocol: Xenografts of human ovarian cancer cells were established by administering 5 million A2780 ovarian cancer cells intraperitoneally in 6 to 8 week old female Balb/c nude mice. Survival was analyzed in the mice which were either left untreated, treated with the chemotherapeutic topotecan in combination with an AAV vector, or treated with the chemotherapeutic paclitaxel in combination with an AAV vector. To establish the topotecan-AAVrh. 10BevMab combination treatment model, 2 weeks after injection of the A2780 ovarian cancer cells, the mice were treated with topotecan at 0.625 mg/kg body weight/day, 5 times/week for 3 weeks (see, Delord et al., Ann. Oncol., 16: 1889-1897 (2005)). […] To establish the paclitaxel-AAVrh.10BevMab combination treatment model, 1 week after injection of the A2780 ovarian cancer cells, the mice were treated with paclitaxel at 20 mg/kg body weight, once/week for 2 weeks (see, Vassileva et al., Mol Cancer Ther., 7: 630-637 (2008)).

recurrent ovarian cancer = details: single agent, patients with recurrent ovarian cancer; cited from earlier work

Compound | Efficacy as single agents at the doses and schedules used [1] | Median survival ([1]; topotecan model: 0.625 mg/kg/day, 5 times/week for 3 weeks from week 2, vector at week 5) [days] | Median survival ([1]; paclitaxel model: 20 mg/kg once/week for 2 weeks from week 1, vector at week 3) [days] | Responsive rate (recurrent ovarian cancer) [%]
CC[C@@]1(O)C(=O)OCc2c1cc1n(c2=O)Cc2cc3c(CN(C)C)c(O)ccc3nc2-1 [Topotecan, topotecan] | efficacious | 50 |  | 
CC(=O)O[C@H]1C(=O)[C@@]2(C)[C@H]([C@H](OC(=O)c3ccccc3)[C@]3(O)C[C@H](OC(=O)[C@H](O)[C@@H](NC(=O)c4ccccc4)c4ccccc4)C(C)=C1C3(C)C)[C@]1(OC(C)=O)CO[C@@H]1C[C@@H]2O [paclitaxel] | efficacious |  | 31 | 
Bevacizumab |  |  |  | 21
